16 compounds from patent publication US12692254B2, “Benzimidazole inhibitors of PAD enzymes” (BRISTOL-MYERS SQUIBB COMPANY, priority 2018, dated 2026) can be followed below.

The experiment has as its target human PAD4 (hPAD4) (Homo sapiens, UniProt Q9UM07). Kind of experiment: RFMS human PAD4 functional assay (rapid-fire mass spectrum). Format: biochemical. The following applies: 5 nM hPAD4 enzyme, 250 μM BAEE, 50 μM Calcium; 30 min preincubation, 90 min reaction at 37° C. The procedure, abridged:
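PAD4 (10 nM) preincubated 30 min with compound (top final 50 μM), then BAEE substrate added in pH 7.5 HEPES buffer with DTT, 50 μM calcium, TPEN; 90 min at 37° C. After TCA quench, citrulline derivatized with phenyl glyoxal (4 mM final, 30 min, 37° C) and quantified by RapidFire MS against internal standard.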

Chain of human PAD4 (hPAD4) (Q9UM07 whole entry): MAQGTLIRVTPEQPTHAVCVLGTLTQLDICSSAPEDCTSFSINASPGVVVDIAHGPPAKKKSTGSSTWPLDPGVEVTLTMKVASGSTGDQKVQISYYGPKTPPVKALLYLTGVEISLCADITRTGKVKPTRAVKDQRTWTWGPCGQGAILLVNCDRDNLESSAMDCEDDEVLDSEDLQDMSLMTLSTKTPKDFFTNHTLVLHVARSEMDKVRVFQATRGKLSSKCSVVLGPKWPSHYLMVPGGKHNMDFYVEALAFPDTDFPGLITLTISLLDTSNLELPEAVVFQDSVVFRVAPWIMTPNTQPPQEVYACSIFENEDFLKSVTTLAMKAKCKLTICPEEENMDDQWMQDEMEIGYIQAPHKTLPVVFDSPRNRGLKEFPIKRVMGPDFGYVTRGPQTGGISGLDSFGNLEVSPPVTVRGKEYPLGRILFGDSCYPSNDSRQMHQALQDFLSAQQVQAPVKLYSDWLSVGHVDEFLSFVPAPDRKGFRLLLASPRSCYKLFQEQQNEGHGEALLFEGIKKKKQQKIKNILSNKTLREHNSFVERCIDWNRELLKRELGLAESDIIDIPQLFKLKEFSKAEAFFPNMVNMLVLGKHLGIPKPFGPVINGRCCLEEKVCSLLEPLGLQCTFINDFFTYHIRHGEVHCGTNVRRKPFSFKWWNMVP

The IC50 is the concentration that inhibits the measured activity by half. For the compound `COc1cc(C(=O)N2CC3CCC2[C@@H]3N)cc2nc(-c3cc4ccccc4n3CC(F)(F)F)n(Cc3cnn(C)c3)c12` (stereo partly drawn) [Example 495, (7R)-2-{7-methoxy-1-[(1-methyl-1H-pyrazol-4-yl)methyl]-2-[1-(2,2,2-trifluoroethyl)-1H-indol-2-yl]-1H-1,3-benzodiazole-5-carbonyl}-2-azabicyclo[2.2.1]heptan-7-amine], the IC50 is 88 nM. To `COc1cc(C(=O)N2C[C@H]3CC[C@@H]2[C@@H]3N)cc2nc(-c3cc4cccnc4n3CC3CC3)n(CC3CN(C(=O)C4CCCCC4)C3)c12` [Example 110, (1R,4R,7R)-2-{1-[(1-cyclohexanecarbonylazetidin-3-yl)methyl]-2-[1-(cyclopropylmethyl)-1H-pyrrolo[2,3-b]pyridin-2-yl]-7-methoxy-1H-1,3-benzodiazole-5-carbonyl}-2-azabicyclo[2.2.1]heptan-7-amine] belongs 46 nM. Then `COc1cc(C(=O)N2C[C@H]3CC[C@@H]2[C@@H]3N)cc2nc(-c3cc4cccnc4n3CC3CC3)n(C3CN(C(=O)c4cnc(C#N)nc4)C3)c12` [Example 102, 5-(3-{5-[(1R,4R,7R)-7-amino-2-azabicyclo[2.2.1]heptane-2-carbonyl]-2-[1-(cyclopropylmethyl)-1H-pyrrolo[2,3-b]pyridin-2-yl]-7-methoxy-1H-1,3-benzodiazol-1-yl}azetidine-1-carbonyl)pyrimidine-2-carbonitrile], with 141 nM. `COc1cc(C(=O)N2C[C@H](N)C[C@@H](F)C2)cc2nc(-c3cc4ccccc4n3CC3CC3)n(Cc3ccnn3C)c12` [Example 277, (3R,5R)-1-{2-[1-(cyclopropylmethyl)-1H-indol-2-yl]-7-methoxy-1-[(1-methyl-1H-pyrazol-5-yl)methyl]-1H-1,3-benzodiazole-5-carbonyl}-5-fluoropiperidin-3-amine]: the IC50 worked out at 319 nM.

As to `COc1cc(C(=O)N2C[C@H]3CC[C@@H]2[C@@H]3N)cc2nc(-c3cc4ccccc4n3CC3CC3)n(CC3CN(C(=O)c4ccc(C)cc4)C3)c12` [Example 156, (1R,4R,7R)-2-{2-[1-(cyclopropylmethyl)-1H-indol-2-yl]-7-methoxy-1-{[1-(4-methylbenzoyl)azetidin-3-yl]methyl}-1H-1,3-benzodiazole-5-carbonyl}-2-azabicyclo[2.2.1]heptan-7-amine], the IC50 was found to be 22 nM. For `COc1cc(C(=O)N2C[C@H]3CC[C@@H]2[C@@H]3N)cc2nc(-c3cc4cccnc4n3CC3CC3)n(C3CN(c4ncccn4)C3)c12` [Example 80, (1R,4R,7R)-2-{2-[1-(cyclopropylmethyl)-1H-pyrrolo[2,3-b]pyridin-2-yl]-7-methoxy-1-[1-(pyrimidin-2-yl)azetidin-3-yl]-1H-1,3-benzodiazole-5-carbonyl}-2-azabicyclo[2.2.1]heptan-7-amine], the IC50 came to 403 nM. On to `COc1cc(C(=O)N2CC3CCC2[C@@H]3N)cc2nc(-c3cc4ccccc4n3CC3CC3)n(Cc3cn(C)nn3)c12` (stereo partly drawn) [Example 503, (7R)-2-{2-[1-(cyclopropylmethyl)-1H-indol-2-yl]-7-methoxy-1-[(1-methyl-1H-1,2,3-triazol-4-yl)methyl]-1H-1,3-benzodiazole-5-carbonyl}-2-azabicyclo[2.2.1]heptan-7-amine], for which the concentration for half-maximal inhibition (IC50) was 149 nM. For `COc1cc(C(=O)N2CC3CCC2[C@@H]3N)cc2nc(-c3cc4ccccc4n3C)n(CC3CN(C(=O)c4ccc(C#N)cc4)C3)c12` (stereo partly drawn) [Example 178, 4-[3-({5-[(7R)-7-amino-2-azabicyclo[2.2.1]heptane-2-carbonyl]-7-methoxy-2-(1-methyl-1H-indol-2-yl)-1H-1,3-benzodiazol-1-yl}methyl)azetidine-1-carbonyl]benzonitrile], the IC50 was 86 nM. In the case of `COc1cc(C(=O)N2CC3CCC2[C@@H]3N)cc2nc(-c3cc4ccccc4n3CC3CC3)n(CC3CN(C(=O)c4ccnc(F)c4)C3)c12` (stereo partly drawn) [Example 419, (7R)-2-{2-[1-(cyclopropylmethyl)-1H-indol-2-yl]-1-{[1-(2-fluoropyridine-4-carbonyl)azetidin-3-yl]methyl}-7-methoxy-1H-1,3-benzodiazole-5-carbonyl}-2-azaticyclo[2.2.1]heptan-7-amine], the IC50 came out at 16 nM.

Consider `COc1cc(C(=O)N2C[C@H]3CC[C@@H]2[C@@H]3N)cc2nc(-c3cc4ccccc4n3CC3CC3)n(CC3CN(C(=O)c4cc(C#N)ccc4F)C3)c12` [Example 174, 3-[3-({5-[(1R,4R,7R)-7-amino-2-azabicyclo[2.2.1]heptane-2-carbonyl]-2-[1-(cyclopropylmethyl)-1H-indol-2-yl]-7-methoxy-1H-1,3-benzodiazol-1-yl}methyl)azetidine-1-carbonyl]-4-fluorobenzonitrile], for which the concentration for half-maximal inhibition (IC50) was 64 nM. With `COc1cc(C(=O)N2C[C@H]3CC[C@@H]2[C@@H]3N)cc2nc(-c3cc4cccnc4n3CC3CC3)n(CC3CCNCC3)c12` [Example 305, (1R,4R,7R)-2-{2-[1-(cyclopropylmethyl)-1H-pyrrolo[2,3-b]pyridin-2-yl]-7-methoxy-1-[(piperidin-4-yl)methyl]-1H-1,3-benzodiazole-5-carbonyl)-2-azabicyclo[2.2.1]heptan-7-amine], the IC50 was 303 nM. Consider `COc1cc(C(=O)N2C[C@H]3CC[C@@H]2[C@@H]3N)cc2nc(-c3cc4ccccc4n3CC3CC3)n(CC3CN(C(=O)c4cccc(C#N)c4)C3)c12` [Example 141, 3-[3-({5-[(1R,4R,7R)-7-amino-2-azabicyclo[2.2.1]heptane-2-carbonyl]-2-[1-(cyclopropylmethyl)-1H-indol-2-yl]-7-methoxy-1H-1,3-benzodiazol-1-yl}methyl)azetidine-1-carbonyl]benzonitrile], for which the IC50 was found to be 14 nM. To `COc1cc(C(=O)N2C[C@H]3CC[C@@H]2[C@@H]3N)cc2nc(-c3cc4cccnc4n3CC3CC3)n(C3CN(S(C)(=O)=O)C3)c12` [Example 330, (1R,4R,7R)-2-{2-[1-(cyclopropylmethyl)-1H-pyrrolo[2,3-b]pyridin-2-yl]-1-(1-methanesulfonylazetidin-3-yl)-7-methoxy-1H-1,3-benzodiazole-5-carbonyl}-2-azabicyclo[2.2.1]heptan-7-amine] belongs 184 nM.

Take `COc1cc(C(=O)N2C[C@H]3CC[C@@H]2[C@@H]3N)cc2nc(-c3cc4ccccc4n3CC3CC3)n(CCCN3CCCC3=O)c12` [Example 254, 1-(3-{5-[(1R,4R,7R)-7-amino-2-azabicyclo[2.2.1]heptane-2-carbonyl]-2-[1-(cyclopropylmethyl)-1H-indol-2-yl]-7-methoxy-1H-1,3-benzodiazol-1-yl}propyl)pyrrolidin-2-one]: the IC50 was 31 nM.

In the case of `COc1cc(C(=O)N2C[C@H]3CC[C@@H]2[C@@H]3N)cc2nc(-c3cc4cccnc4n3CC3CC3)n(C[C@H]3CCN(c4ccnc(C#N)n4)C3)c12` [Example 204, 4-[(3S)-3-({5-[(1R,4R,7R)-7-amino-2-azabicyclo[2.2.1]heptane-2-carbonyl]-2-[1-(cyclopropylmethyl)-1H-pyrrolo[2,3-b]pyridin-2-yl]-7-methoxy-1H-1,3-benzodiazol-1-yl}methyl)pyrrolidin-1-yl]pyrimidine-2-carbonitrile], the IC50 came to 35 nM.

As to `COc1cc(C(=O)N2C[C@H](N)C[C@@H](F)C2)cc2nc(-c3cc4ccccc4n3CC3CC3)n(CC3CC(F)(F)C3)c12` [Example 477, (3R,5R)-1-{2-[1-(cyclopropylmethyl)-1H-indol-2-yl]-1-[(3,3-difluorocyclobutyl)methyl]-7-methoxy-1H-1,3-benzodiazole-5-carbonyl}-5-fluoropiperidin-3-amine], the IC50 worked out at 142 nM.
